Converted amounts (≈) assume the structure as drawn.
System: Pasteurella multocida
Test: minimum inhibitory concentration (MIC)
Procedure: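 Broth microdilution MIC (Sensititre BOPO7F bovine plate, CLSI methods) of 19 antimicrobials against field isolates of P. multocida, M. haemolytica, H. somni (deep nasopharyngeal swabs) and E. coli, Enterococcus spp. (rectal swabs) from weaned dairy heifers. Incubation 16-24 h at 35 C. MIC is the lowest concentration preventing visible growth. Values with <= or > lie at the tested range limits. Trimethoprim-sulfamethoxazole is given as the trimethoprim component of a 1:19 mixture.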

CC1(C)S[C@@H]2[C@H](NC(=O)[C@H](N)c3ccccc3)C(=O)N2[C@H]1C(=O)O [Ampicillin]
Details	minimum inhibitory concentration [µg/mL]
isolate (source animal id): 10	≤ 0.25
isolate (source animal id): 11	≤ 0.25
isolate (source animal id): 12	≤ 0.25
isolate (source animal id): 19	≤ 0.25
isolate (source animal id): 23	≤ 0.25
isolate (source animal id): 26	≤ 0.25
isolate (source animal id): 98	≤ 0.25
isolate (source animal id): 104	≤ 0.25
isolate (source animal id): 115	≤ 0.25
isolate (source animal id): 117	≤ 0.25
isolate (source animal id): 118	≤ 0.25
isolate (source animal id): 121	≤ 0.25
isolate (source animal id): 124	0.5 (≈ 1.43 µM)
isolate (source animal id): 125	≤ 0.25
isolate (source animal id): 128	≤ 0.25
isolate (source animal id): 131	≤ 0.25
isolate (source animal id): 135	≤ 0.25
isolate (source animal id): 136	≤ 0.25
isolate (source animal id): 140	≤ 0.25
isolate (source animal id): 144	≤ 0.25
isolate (source animal id): 146	≤ 0.25
isolate (source animal id): 150	≤ 0.25
isolate (source animal id): 151	≤ 0.25
isolate (source animal id): 153	≤ 0.25
isolate (source animal id): 155	≤ 0.25
isolate (source animal id): 157	≤ 0.25
isolate (source animal id): 160	≤ 0.25
isolate (source animal id): 164	≤ 0.25
isolate (source animal id): 165	≤ 0.25
isolate (source animal id): 167	≤ 0.25
isolate (source animal id): 168	≤ 0.25
isolate (source animal id): 169	≤ 0.25
isolate (source animal id): 170	8 (≈ 22.9 µM)
isolate (source animal id): 171	≤ 0.25
isolate (source animal id): 172	≤ 0.25
isolate (source animal id): 173	≤ 0.25
isolate (source animal id): 174	≤ 0.25
isolate (source animal id): 175	≤ 0.25
isolate (source animal id): 176	≤ 0.25
isolate (source animal id): 177	≤ 0.25
isolate (source animal id): 178	≤ 0.25
isolate (source animal id): 179	≤ 0.25
isolate (source animal id): 182	≤ 0.25
isolate (source animal id): 192	≤ 0.25
isolate (source animal id): 193	≤ 0.25
isolate (source animal id): 195	≤ 0.25
isolate (source animal id): 196	≤ 0.25
isolate (source animal id): 197	≤ 0.25
isolate (source animal id): 198	≤ 0.25
isolate (source animal id): 199	≤ 0.25
isolate (source animal id): 200	≤ 0.25
isolate (source animal id): 201	≤ 0.25
isolate (source animal id): 203	≤ 0.25
isolate (source animal id): 204	≤ 0.25
isolate (source animal id): 205	≤ 0.25
isolate (source animal id): 206	≤ 0.25
isolate (source animal id): 207	≤ 0.25
isolate (source animal id): 208	≤ 0.25
isolate (source animal id): 209	≤ 0.25
isolate (source animal id): 210	≤ 0.25
isolate (source animal id): 213	≤ 0.25
isolate (source animal id): 216	≤ 0.25
isolate (source animal id): 223	≤ 0.25
isolate (source animal id): 227	≤ 0.25
isolate (source animal id): 229	≤ 0.25
isolate (source animal id): 233	≤ 0.25
isolate (source animal id): 234	≤ 0.25
isolate (source animal id): 237	≤ 0.25
isolate (source animal id): 241	≤ 0.25
isolate (source animal id): 245	≤ 0.25
isolate (source animal id): 247	≤ 0.25
isolate (source animal id): 250	≤ 0.25
isolate (source animal id): 254	≤ 0.25
isolate (source animal id): 255	≤ 0.25
isolate (source animal id): 258	≤ 0.25
isolate (source animal id): 261	≤ 0.25
isolate (source animal id): 262	≤ 0.25
isolate (source animal id): 269	≤ 0.25
isolate (source animal id): 270	≤ 0.25
isolate (source animal id): 274	≤ 0.25
isolate (source animal id): 275	≤ 0.25
isolate (source animal id): 276	≤ 0.25
isolate (source animal id): 277	≤ 0.25
isolate (source animal id): 278	≤ 0.25
isolate (source animal id): 279	≤ 0.25
isolate (source animal id): 280	≤ 0.25
isolate (source animal id): 284	≤ 0.25
isolate (source animal id): 285	≤ 0.25
isolate (source animal id): 287	≤ 0.25
isolate (source animal id): 290	≤ 0.25
isolate (source animal id): 294	≤ 0.25
isolate (source animal id): 295	≤ 0.25
isolate (source animal id): 296	≤ 0.25
isolate (source animal id): 307	≤ 0.25
isolate (source animal id): 310	≤ 0.25
isolate (source animal id): 311	≤ 0.25
isolate (source animal id): 312	≤ 0.25
isolate (source animal id): 313	≤ 0.25
isolate (source animal id): 315	≤ 0.25
isolate (source animal id): 316	≤ 0.25

Reference: the supplement of paper PMC8612539
